Results reported in patent publication US4318916A, “Antibiotic PS-5 and derivatives having β-lactamase inhibitory activity and production thereof” (Sanraku-Ocean Co., Ltd., priority 1977, dated 1982).
≈ marks a conversion by molar mass, not a printed value. Structures can show the parent of a compound that is named as a salt.

Tests used:
[1] = Solubility of antibiotic PS-5; format: physicochemical; settings: sodium salt preparation of Example 9
male ddy mice = format: in vivo; settings: 500 mg/kg intraperitoneally
Description: An aqueous solution of the antibiotic PS-5 sodium salt was intraperitoneally administered to male ddy mice (Shizuoka) at the dose of 500 mg/kg.

[2] = test system: Staphylococcus aureus Smith; test: Therapeutic activity of antibiotic PS-5 sodium salt in infected mice; format: in vivo; settings: sc; male ddy mice infected i.p. with 5×10^5 cells/mouse Staphylococcus aureus Smith; subcutaneously injected soon after infection; read-out: 50% curative dose
Text: The therapeutic activity of the antibiotic PS-5 sodium salt was studied by treating mice intraperitoneally infected with 5×10^5 cells/mouse of Staphylococcus aureus Smith. Soon after the infection, an aqueous solution of the antibiotic PS-5 sodium salt was subcutaneously injected.

[3] = test system: Comamonas terrigena B-996; test: Disc bio-assay of antimicrobial activity, cephaloridine equivalent units; format: cell-based; settings: Comamonas-cephaloridine units per mg of the final purified preparation
Description: The overnight culture of Comamonas terrigena B-996 on a nutrient agar slant was suspended in nutrient broth so as to give an optical cell density of 0.040 at 610 nm.
The seed suspension was added in a 1% amount to a molten agar medium containing 0.8% Kyokuto Nutrient Broth Powder (Kyokuto Pharmaceutical Industries Co.) and 1.0% Bacto-Agar (Difco Laboratories). Seven milliliters of the seeded molten agar medium were distributed in a Petri dish (9 cm in diameter) and solidified). This is defined as a Comamonas assay plate.
An 8 mm pulp disc was usually soaked with a sample solution to be assayed, left on a clean sheet of filter paper for a sufficient time to remove the excess solution and then transferred onto an assay plate. After incubation at 35° C. for 20 hours, the diameter of the observed inhibition zone was measured and compared with standard solutions of cephaloridine. The antimicrobial activity of the antibiotic PS-5 and related compounds is expressed as cephaloridine equivalent units/ml.
As well known to those skilled in the art, the assay standard curve varies to some extent, depending on the species of the test microorganisms. […]

Proteus vulgaris P-5 [4] = test: Potentiation disc assay with cephaloridine (Table 10); format: cell-based; settings: Proteus vulgaris P-5; for Inhibition zone With CER: 50 μg/ml cephaloridine in agar
Description: (A) Ten milliliters of molten nutrient agar containing 50 μg/ml of penicillin G or cephaloridine, 0.8% of Kyokuto Nutrient Broth Powder and 1.0% of Difco Bacto-Agar (pH 7.0) were seeded with the beta-lactam-resistant, beta-lactamase-producing microorganisms indicated in Tables 9 and 10, and poured in a 9-cm Petri dish to provide the bio-assay agar plate. On this assay plate, 8-mm pulp discs containing 25 μl each of antibiotic PS-5 solutions at the indicated concentrations were placed and incubated at 35° C. for 18 hours before reading the inhibition zones. The control assay plate was similarly prepared without penicillin G nor cephaloridine. As reference antibiotics, penicillin G, ampicillin, oxacillin and cefazolin were disc-assayed under the same conditions.

[5] = test system: Staphylococcus aureus FDA 209p; test: MIC by broth dilution (Table 13); format: cell-based; settings: FDA209P, 20 h; Staphylococcus aureus FDA 209p; read-out: MIC
Description: (§1) The MIC (minimum inhibitory concentration) values of the compound were determined on various pathogenic microorganisms including several resistant strains, utilizing the broth dilution method in BRAIN HEART INFUSION BROTH `Eiken` (EIKEN CHEMICAL CO., LTD.).
(§2) The results were read after incubation at 35° C. for 20 hours. The minimum inhibitory concentration (MIC) values means the lowest concentration unit of the tritylation product of the antibiotic PS-5 was no growth of the corresponding microorganism was observed under the above described conditions. As the control antibiotics,the solutions of ampicillin and cephaloridine were prepared in BRAIN HEART INFUSION BROTH `Eiken` (pH 7.0) at a concentration of 100 μg/ml and treated same as the test compound of the present invention.

[6] = test system: Enterobacter cloacae E-16; test: MIC by broth dilution (Table 13); format: cell-based; settings: E16, 20 h
Description: as §1, §2

Escherichia coli K12 = test: MIC by broth dilution (Table 13); format: cell-based; settings: 20 h
Description: as §1, §2

[7] = test system: Klebsiella pneumoniae K-2; test: MIC by broth dilution (Table 13); format: cell-based; settings: K2, 20 h; Klebsiella pneumoniae K-2; read-out: MIC
Description: as §1, §2

[8] = test system: Diplococcus pneumoniae Type III; test: MIC by broth dilution (Table 13); format: cell-based; settings: Streptococcus pneumoniae, 20 h; Diplococcus pneumoniae Type III; read-out: MIC
Description: as §1, §2

Serratia marcescens S-18 = test: MIC by broth dilution (Table 13); format: cell-based; settings: S18, 20 h
Description: as §1, §2

Proteus mirabilis P-6 = test: MIC by broth dilution (Table 13); format: cell-based; settings: Proteus mirabilis, P6, 20 h
Description: as §1, §2

[9] = test system: Alcaligenes faecalis B-326; test: MIC by broth dilution (Table 13); format: cell-based; settings: Alcaligenes faecalis, B326, 20 h
Description: as §1, §2

Citrobacter freundii E-9 = test: MIC by broth dilution (Table 13); format: cell-based; settings: E9, 20 h; Citrobacter freundii E-9; read-out: MIC
Description: as §1, §2

[10] = test system: Enterobacter aerogenes E-19; test: MIC by broth dilution (Table 13); format: cell-based; settings: Klebsiella aerogenes, E19, 20 h
Description: as §1, §2

Proteus vulgaris P-5 [11] = test: MIC by broth dilution (Table 13); format: cell-based; settings: P5, 20 h; Proteus vulgaris P-5; read-out: MIC
Description: as §1, §2

[12] = test system: Staphylococcus aureus Smith; test: MIC by broth dilution (Table 13); format: cell-based; settings: 20 h; Staphylococcus aureus Smith; read-out: MIC
Description: as §1, §2

Enterobacter sp. E-8 = test: MIC by broth dilution (Table 13); format: cell-based; settings: SP.E8, 20 h; Enterobacter sp. E-8; read-out: MIC
Description: as §1, §2

[13] = test system: Pseudomonas aeruginosa P-1; test: MIC by broth dilution (Table 13); format: cell-based; settings: P1, 20 h; Pseudomonas aeruginosa P-1; read-out: MIC
Description: as §1, §2

[14] = test system: Streptococcus pyogenes NY-5; test: MIC by broth dilution (Table 13); format: cell-based; settings: NY5, 20 h; Streptococcus pyogenes NY-5; read-out: MIC
Description: as §1, §2

Proteus rettgeri P-7 = test: MIC by broth dilution (Table 13); format: cell-based; settings: Providencia rettgeri, P7, 20 h; Proteus rettgeri P-7; read-out: MIC
Description: as §1, §2

Sarcina lutea S-19 = test: MIC by broth dilution (Table 13); format: cell-based; settings: Micrococcus luteus, S19, 20 h; Sarcina lutea S-19; read-out: MIC
Description: as §1, §2

CCC1C(=O)N2C(C(=O)O)=C(SCCNC(C)=O)CC12 (centres unmarked) [antibiotic PS-5 sodium salt]
Solubility in acetone [1]: substantially insoluble | Solubility in water [1]: Soluble | Deaths after intraperitoneal administration (male ddy mice): No dead was recorded | ED50 [2]: 2.45 mg/kg | Specific activity [3]: 21,000 CCU/mg

CC1(C)S[C@@H]2[C@H](NC(=O)[C@H](N)c3ccccc3)C(=O)N2[C@H]1C(=O)O [Ampicillin, ampicillin]
zone of inhibition at 625 µg/mL (Proteus vulgaris P-5 [4]; P5, 18 h, reference antibiotic 625 μg/ml, read-out: Inhibition zone Without CER): 0 mm | zone of inhibition at 2500 µg/mL (Proteus vulgaris P-5 [4]; P5, 18 h, reference antibiotic 2,500 μg/ml, read-out: Inhibition zone Without CER): 0 mm | zone of inhibition at 10000 µg/mL (Proteus vulgaris P-5 [4]; P5, 18 h, reference antibiotic 10,000 μg/ml, read-out: Inhibition zone Without CER): 14.7 mm | Potentiation of the antimicrobial activity of cephaloridine (Proteus vulgaris P-5 [4]; disc assay, Table 10): could not increase the antimicrobial activity of cephaloridine | Inhibition zone With CER (Proteus vulgaris P-5 [4]; reference antibiotic 625 μg/ml): 0 mm | Inhibition zone With CER (Proteus vulgaris P-5 [4]; reference antibiotic 2,500 μg/ml): 0 mm | Inhibition zone With CER (Proteus vulgaris P-5 [4]; reference antibiotic 10,000 μg/ml): 12.9 mm | MIC [5]: 0.2 µg/mL (≈ 0.572 µM) | MIC [6]: > 100 µg/mL | MIC (Escherichia coli K12): 3.13 µg/mL (≈ 8.96 µM) | MIC [7]: > 100 µg/mL | MIC [8]: 0.04 µg/mL (≈ 0.114 µM) | MIC (Serratia marcescens S-18): 50 µg/mL (≈ 143 µM) | MIC (Proteus mirabilis P-6): 3.13 µg/mL (≈ 8.96 µM) | MIC [9]: 6.25 µg/mL (≈ 17.9 µM) | MIC (Citrobacter freundii E-9): > 100 µg/mL | MIC [10]: > 100 µg/mL | MIC (Proteus vulgaris P-5 [11]): > 100 µg/mL | MIC [12]: 0.2 µg/mL (≈ 0.572 µM) | MIC (Enterobacter sp. E-8): > 100 µg/mL | MIC [13]: 50 µg/mL (≈ 143 µM) | MIC [14]: 0.02 µg/mL (≈ 0.0572 µM) | MIC (Proteus rettgeri P-7): 50 µg/mL (≈ 143 µM) | MIC (Sarcina lutea S-19): 0.05 µg/mL (≈ 0.143 µM)
